The values that follow come from BindingDB's records for doi:10.1016/j.bmcl.2004.01.013 (University of Arizona, 2004).

The test concerns the target Ceramide glucosyltransferase (Canis familiaris). Nature of the test: Inhibitory concentration against glucosylceramide synthase in MDCK cell line.

SMILES strings stand for the structures.

In general, IC50 refers to the point on the concentration scale where inhibition reaches its midpoint. The low end stands for inhibition by little substance, the high end for a need for much substance.

In the case of `CCCCCCCCCCCCCCCC(=O)NC(CN1CCCC1)C(O)c1ccc2c(c1)OCCO2` (configuration not stated) [Hexadecanoic acid [2-(2,3-dihydro-benzo[1,4]dioxin-6-yl)-2-hydroxy-1-pyrrolidin-1-ylmethyl-ethyl]-amide], the IC50 is 90 nM.
As for `CCCCCCCCCCCCCCCC(=O)NC(CN1CCCC1)C(O)c1ccc(O)cc1` (configuration not stated) [Hexadecanoic acid [2-hydroxy-2-(4-hydroxy-phenyl)-1-pyrrolidin-1-ylmethyl-ethyl]-amide], half-maximal inhibition (IC50) was put at 90 nM.
